Data published in patent publication US9637529B2, “Medicament for atrophy treatment or increasing cell growth” (SIMU TRADE CONSULTING GMBH & CO. LEASING KG, priority 2012, dated 2017).
“Also recorded” adds a separate entry of the source.

What was measured:
[1] = test system: rat skeletal muscle cells (L6); experiment: AlamarBlue proliferation assay, L6 cells; assay type: cell-based
Protocol: FIG. 2: Effect of SERF2 on Proliferation of rat skeletal muscle cells (L6). 1×10^4 L6 cells were seeded per well containing 100 μl growth medium. Cells were incubated over night at +37° C., 5% v/v CO^2 and humidified atmosphere. Prior performing the assay, viability of cells was checked under the microscope. Cells were washed three times with 100 μl DPBS per well. SERF2 was diluted […]) in DMEM and 100 μl/well were added to the cells. Finally, cells were incubated at +37° C. for various time points. Subsequently 10 μl/well AlamarBlue™ reagent (Invitrogen) was added. Plates were incubated for one hour at +37° C. Fluorescence (Ex. 570 nm, Em. 585 nm) was measured using a Varioskan Flash multi-plate reader (Thermo Scientific). Obtained Data were evaluated using Microsoft Excel and Graph Pad Prism V4.
FIG. 6: Kinetics of the Effect of SERF2 on Proliferation of rat skeletal muscle cells (L6). Cells stimulated with SERF2 (green line) responded with proliferation and reached a max. proliferation rate after 6 days. Proliferation assay was performed essentially as in FIG. 2. Incubation times were 24, 48, 72 and 144 hrs, the SERF2 concentration added was 5 μg/ml.
Rat derived embryonic cardiomyocytes H9c2 (ATTC CRL-1446) and embryonic skeletal muscle cells L6 (ATTC CRL-1458) were cultured in Dulbecco's Modified Eagle Medium high glucose (DMEM, Sigma Aldrich) containing 10% v/v fetal calf serum (FCS, PAA) and 1% v/v Penicillin/Streptamycin (Gibco). Cells were grown in 80 cm2 cell culture flasks (NUNC) using 15 ml growth medium. Both cell lines were incubated under humidified atmosphere at +37° C. and 5% v/v CO^2. Cells were splitted when a confluency of approximately 90% was reached. […] Cell number and viability were determined by trypanblue exclusion performed by using an automated cell analyzer (CEDEX, Innovatis). […]
Proliferation was measured using the AlamarBlue™ assay according to the manufacturer's protocol. […] Fluorescence (Ex. 570 nm, Em. 585 nm) was measured using a Varioskan Flash multi-plate reader (Thermo Scientific). Data were evaluated using Microsoft Excel and GraphPad Prism V4.

[2] = test system: mouse satellite cells (MuMa23/P13); experiment: AlamarBlue proliferation assay, primary satellite cells; assay type: cell-based; settings: 24 hrs, SERF2 20 and 4 μg/ml
Protocol: FIG. 4: Effect of SERF2 on Proliferation of mouse satellite cells (MuMa23/P13). Proliferation assay was performed essentially as in FIG. 2. Incubation time was 24 hrs, added SERF2 concentrations were 20 and 4 μg/ml, respectively.
Muscle tissue was taken from male ICR mice and minced by using scissors and a scalpel. Following incubation in protease solution (Sigma, St. Lois) for 1 h at 37° C., remaining tissue clumps were dissociated by vigorousely pipetting and loaded onto a Percoll (Pharmacia) gradient (75%, 50%, 30%). After centrifugation for 20 min at 1250×g, cells were collected from the 2nd interphase (99% satellite cells), washed and cultured at a cell density of 1×10^5 cells/ml in 6-well plates. See also Danoviz ewt al. Methods Mol Biol. 2012; 798: 21-52.
Proliferation was measured using the AlamarBlue™ assay according to the manufacturer's protocol. Briefly, 1×10^4 cells were seeded per well containing 100 μl growth medium. Cells were incubated over night at +37° C., 5% v/v CO^2 and humidified atmosphere. Prior performing the assay, viability of cells was checked under the microscope. Usually cells reached 60% confluence. Cells were washed three times with 100 μl DPBS per well. […] Fluorescence (Ex. 570 nm, Em. 585 nm) was measured using a Varioskan Flash multi-plate reader (Thermo Scientific). Data were evaluated using Microsoft Excel and GraphPad Prism V4.

[3] = test system: human epithelial cell line (A431); experiment: H2O2-induced apoptosis, trypan-blue staining, A431; assay type: cell-based; settings: 200 mM H2O2, SERF2 5 μg/ml, 6 hours, serum-free
Protocol: (§1) Experiments were performed in 6-well plates containing 5 ml cell culture medium (serum-free) per well and were seeded at a cell density of 1*10^6 cells/well and cultured overnight. On the next day 200 mM H2O2 or 200 mM H2O2 and SERF2 (5 μg/ml) was added to cultures. After 6 hours of incubation, the adherent cells were harvested, washed 3 times in PBS and dead cells were detected by trypan-blue staining using light microscopy. Shown is the percentage of dead cells.
(§2) Trypan Blue staining is one of the most commonly used methods to determine the cell viability using light microscopy. Trypan blue can only stain cells if their membrane is damaged.
(§3) The question was asked whether SERF2 has an effect on growth factor deprivation- or stress-induced apoptosis. The experimental protocol included addition of Hydrogen peroxide (H2O2), which is known to cause cellular stress and consequently apoptotic death in doses below 200 μM (Cox A., Carcinogenesis. 2007, Vol. 28, 10). Furthermore apoptosis was induced by deprivation of granulocyte macrophage colony-stimulating factor (GM-CSF) in cultures of TF-1 cells. These cells are dependent on the presence of a growth factor which is absolutely necessary for growth and differentiation of TF-1 cells.

[4] = test system: human T-cell line (Jurkat); experiment: H2O2-induced apoptosis, trypan-blue staining, Jurkat; assay type: cell-based; settings: 200 mM H2O2, SERF2 5 μg/ml, 6 hours, serum-free
Protocol: as §1, with “mM H2O2 (red bar) or 200” for “mM H2O2 or 200”, “and SERF2 (green bar; 5 μg/ml) was” for “and SERF2 (5 μg/ml) was”
as §2, §3

zebrafish = experiment: Zebrafish heart size / heart volume; assay type: in vivo; settings: 7 dpf zebrafish incubated with different doses of SERF2
Protocol: FIG. 13: a: Changes in heart size in 7 dpf old zebrafish incubated with different doses of SERF2. b: Changes in heart volume in 7 dpf old zebrafish incubated in different concentrations of SERF2 and erythropoietin (EPO). Significant differences to control animals are indicated by asterisks.
SERF2 was administered by a) injection of the native protein into the yolk sac of 3 day post fertilization (dpf) animals and freshly fertilized eggs (2-8 cell stage) in various protein concentrations or chronic incubation with the native protein to supply it via diffusion. For in deep analysis of angiogenic effects flk-1 transgenic animals with gfp (green fluorescent protein) labelled endothelium were used. For all other experiments wildtype (wdt) animals were used.
Heart size was determined by measurement of end diastolic dimensions and calculation of end diastolic volume as described by Schwerte et al. (Schwerte et al. The Journal of Experimental Biology. 2003; 206 (Pt 8):1299-1307).

## SERF2: Small EDRK-rich factor 2, mature protein of 59 amino acids (SEQ ID NO: 1) (MTRGNQRELARQKNMKKQSDSVKGKRRDDGLSAAARKQRDSEIMQQKQKKANEKKEEPK; homo sapiens)
[1]; AlamarBlue, single treatment, read daily until day six
  proliferative effect on L6 rat skeletal muscle cells: proliferative effect on L6 rat skeletal muscle cells in a dose- and time-dependent manner
[1]; SERF2 5 μg/ml, incubation 24, 48, 72 and 144 hrs
  time to max. proliferation rate, L6: 6 days
[1]; incubation time
  time of maximum proliferative effect, L6: three to six
[2]
  proliferative effect on mouse satellite cells: proliferative effect in a dose-dependent manner
[3]
  protection from H2O2-induced apoptosis (percentage of dead cells), A431: markedly reduced apoptosis; also recorded: protects a human epithelial cell line (A431) from H2O2-induced apoptosis
[4]
  protection from H2O2-induced apoptosis (percentage of dead cells), Jurkat: markedly reduced apoptosis; also recorded: protects a human T-cell line (Jurkat) from H2O2-induced apoptosis
zebrafish
  change in heart volume: significant increase of the animals heart volume
